Assay [1] deals with STE20-like serine/threonine-protein kinase (Homo sapiens) (UniProt Q9H2G2). Description: Inhibition of SLK Lys2 labeling site harbouring DLKAGNILFTLDGDIK in human A-375 cells at 5 uM by KiNativ Profiling analysis relative to control. Type of assay: cell-based.
Assay [2] has as its target Phosphatidylinositol 4-kinase alpha (Homo sapiens) (UniProt P42356). Briefly: Inhibition of PI4KA ATP labeling site in human A-375 cells at 0.5 uM by KiNativ Profiling analysis relative to control. Type of assay: cell-based.
For assay [3], the target named is Ephrin type-A receptor 1 (Homo sapiens) (UniProt P21709). Description: Inhibition of EPHA1 (unknown origin) at 1 uM by Ambit Kinomescan binding assay relative to control; values are per cent of control.
In assay [4] the target is Tyrosine-protein kinase Fer (Homo sapiens, UniProt P16591). Briefly: Inhibition of FER K1 labeling site in human Huh-7 cells at 10 uM by KiNativ Profiling analysis relative to control. In kind it is cell-based.
Assay [5] concerns the target Serine/threonine-protein kinase 26 (Homo sapiens) (UniProt Q9P289). Description: Inhibition of MST4 ATP labeling site in human Huh-7 cells at 1 uM by KiNativ Profiling analysis relative to control. Type of assay: cell-based.
The target of assay [6] is T1, Serine/threonine-protein kinase Nek9 (Homo sapiens) (UniProt Q8TD19).
T1 sequence (whole entry): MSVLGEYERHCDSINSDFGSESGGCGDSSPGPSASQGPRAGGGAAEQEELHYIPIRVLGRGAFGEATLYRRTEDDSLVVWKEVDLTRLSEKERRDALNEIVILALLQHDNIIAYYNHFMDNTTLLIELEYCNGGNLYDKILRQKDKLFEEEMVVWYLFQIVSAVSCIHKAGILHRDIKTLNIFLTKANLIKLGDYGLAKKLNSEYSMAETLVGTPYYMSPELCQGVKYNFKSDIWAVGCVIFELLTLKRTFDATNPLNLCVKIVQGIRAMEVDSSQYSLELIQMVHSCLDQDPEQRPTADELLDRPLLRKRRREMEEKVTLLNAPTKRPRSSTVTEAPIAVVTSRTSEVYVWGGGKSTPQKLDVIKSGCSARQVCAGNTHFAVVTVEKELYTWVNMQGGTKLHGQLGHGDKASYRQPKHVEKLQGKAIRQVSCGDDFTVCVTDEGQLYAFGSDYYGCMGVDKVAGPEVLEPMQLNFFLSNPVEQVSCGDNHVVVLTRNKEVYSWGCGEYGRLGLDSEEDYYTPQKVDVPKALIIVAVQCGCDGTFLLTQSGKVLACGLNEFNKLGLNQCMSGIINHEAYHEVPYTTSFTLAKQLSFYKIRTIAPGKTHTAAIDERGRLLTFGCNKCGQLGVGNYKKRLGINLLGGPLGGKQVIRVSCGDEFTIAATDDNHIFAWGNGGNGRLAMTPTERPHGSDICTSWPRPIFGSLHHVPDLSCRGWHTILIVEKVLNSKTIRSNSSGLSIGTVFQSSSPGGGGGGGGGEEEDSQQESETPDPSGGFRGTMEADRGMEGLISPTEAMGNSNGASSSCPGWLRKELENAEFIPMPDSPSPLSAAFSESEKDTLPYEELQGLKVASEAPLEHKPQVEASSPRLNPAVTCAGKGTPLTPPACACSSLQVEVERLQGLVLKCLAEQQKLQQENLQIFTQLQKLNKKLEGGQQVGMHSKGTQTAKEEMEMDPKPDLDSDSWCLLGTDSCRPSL
Description: Inhibition of NEK9 K1 labeling site harbouring TEDDSLVVWKEVDLTR in human Huh-7 cells at 10 uM by KiNativ Profiling analysis relative to control. In kind it is cell-based.

Assay [7] addresses T2, Mitogen-activated protein kinase kinase kinase 3 (Homo sapiens) (UniProt Q99759).
T2 sequence (whole entry): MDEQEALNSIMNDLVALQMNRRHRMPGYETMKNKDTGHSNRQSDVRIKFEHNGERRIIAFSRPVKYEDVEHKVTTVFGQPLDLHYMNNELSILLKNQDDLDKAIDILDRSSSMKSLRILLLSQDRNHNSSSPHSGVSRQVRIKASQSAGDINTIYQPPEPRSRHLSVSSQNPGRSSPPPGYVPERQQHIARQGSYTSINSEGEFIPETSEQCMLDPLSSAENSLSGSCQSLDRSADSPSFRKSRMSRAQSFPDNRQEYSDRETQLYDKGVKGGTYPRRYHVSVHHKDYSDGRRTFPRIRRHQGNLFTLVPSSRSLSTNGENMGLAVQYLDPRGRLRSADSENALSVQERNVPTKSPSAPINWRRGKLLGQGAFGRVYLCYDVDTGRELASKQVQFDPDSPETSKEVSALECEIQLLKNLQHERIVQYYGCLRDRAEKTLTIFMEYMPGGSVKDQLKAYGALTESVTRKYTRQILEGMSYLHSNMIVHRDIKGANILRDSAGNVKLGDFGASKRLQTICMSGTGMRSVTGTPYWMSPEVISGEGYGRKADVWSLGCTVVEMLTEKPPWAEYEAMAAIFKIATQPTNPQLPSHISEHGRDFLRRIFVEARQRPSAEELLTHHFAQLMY
Description: Inhibition of MAP3K3 Lys2 labeling site in human Huh-7 cell lysate at 1 uM by KiNativ Profiling analysis relative to control. In kind it is subcellular.

Assay [8] deals with Calcium/calmodulin-dependent protein kinase type II subunit gamma (Homo sapiens) (UniProt Q13555). Description: Inhibition of CaMK2g Lys1 labeling site harbouring KTSTQEYAAKIINTK in human Huh-7 cell lysate at 1 uM by KiNativ Profiling analysis relative to control. Type of assay: subcellular.
For assay [9], the target named is Casein kinase I isoform epsilon (Homo sapiens) (UniProt P49674). Briefly: Inhibition of CK1epsilon Lys2 labeling site in human Huh-7 cell lysate at 1 uM by KiNativ Profiling analysis relative to control. Type of assay: subcellular.
Sequence of Casein kinase I isoform epsilon (Homo sapiens) (P49674 whole entry, looked up, canonical isoform): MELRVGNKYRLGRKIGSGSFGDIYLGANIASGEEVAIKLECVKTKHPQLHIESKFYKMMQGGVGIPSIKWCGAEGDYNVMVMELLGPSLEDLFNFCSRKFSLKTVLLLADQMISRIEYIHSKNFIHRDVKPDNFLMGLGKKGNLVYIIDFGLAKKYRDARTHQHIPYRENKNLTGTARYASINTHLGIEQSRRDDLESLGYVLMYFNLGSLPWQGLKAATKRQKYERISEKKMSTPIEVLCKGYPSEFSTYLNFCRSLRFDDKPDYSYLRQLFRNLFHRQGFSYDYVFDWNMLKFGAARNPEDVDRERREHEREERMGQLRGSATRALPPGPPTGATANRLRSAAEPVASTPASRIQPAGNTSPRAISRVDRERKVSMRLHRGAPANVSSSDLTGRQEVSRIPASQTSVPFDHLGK

Sequence of Calcium/calmodulin-dependent protein kinase type II subunit gamma (Homo sapiens) (Q13555 whole entry, canonical isoform): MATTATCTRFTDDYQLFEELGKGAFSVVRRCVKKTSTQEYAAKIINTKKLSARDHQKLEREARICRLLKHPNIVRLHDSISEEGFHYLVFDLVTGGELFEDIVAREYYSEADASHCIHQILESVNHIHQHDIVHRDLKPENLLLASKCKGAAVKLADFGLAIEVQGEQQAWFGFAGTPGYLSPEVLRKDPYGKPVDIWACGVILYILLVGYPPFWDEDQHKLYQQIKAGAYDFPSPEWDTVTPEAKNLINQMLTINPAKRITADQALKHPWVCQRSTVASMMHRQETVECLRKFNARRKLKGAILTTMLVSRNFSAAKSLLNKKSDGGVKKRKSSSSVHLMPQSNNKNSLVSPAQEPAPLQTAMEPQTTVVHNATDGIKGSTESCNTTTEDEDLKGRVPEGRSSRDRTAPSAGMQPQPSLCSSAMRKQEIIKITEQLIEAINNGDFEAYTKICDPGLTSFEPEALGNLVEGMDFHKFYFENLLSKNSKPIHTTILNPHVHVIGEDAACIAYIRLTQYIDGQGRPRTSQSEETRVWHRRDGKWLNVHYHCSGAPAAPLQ
Sequence of Serine/threonine-protein kinase 26 (Homo sapiens) (Q9P289 2-416 limits assumed): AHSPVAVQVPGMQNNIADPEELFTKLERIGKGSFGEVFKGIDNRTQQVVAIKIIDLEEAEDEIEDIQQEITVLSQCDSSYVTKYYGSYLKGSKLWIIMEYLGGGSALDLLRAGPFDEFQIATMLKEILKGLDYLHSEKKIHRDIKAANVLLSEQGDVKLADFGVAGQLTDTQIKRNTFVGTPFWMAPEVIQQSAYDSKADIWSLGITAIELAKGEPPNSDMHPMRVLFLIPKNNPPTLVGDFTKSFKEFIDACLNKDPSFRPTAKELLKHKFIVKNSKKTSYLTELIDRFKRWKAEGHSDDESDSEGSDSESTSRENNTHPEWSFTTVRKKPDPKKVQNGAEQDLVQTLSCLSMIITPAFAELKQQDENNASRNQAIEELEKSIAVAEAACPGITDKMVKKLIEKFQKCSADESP
Sequence of Tyrosine-protein kinase Fer (P16591 whole entry, looked up): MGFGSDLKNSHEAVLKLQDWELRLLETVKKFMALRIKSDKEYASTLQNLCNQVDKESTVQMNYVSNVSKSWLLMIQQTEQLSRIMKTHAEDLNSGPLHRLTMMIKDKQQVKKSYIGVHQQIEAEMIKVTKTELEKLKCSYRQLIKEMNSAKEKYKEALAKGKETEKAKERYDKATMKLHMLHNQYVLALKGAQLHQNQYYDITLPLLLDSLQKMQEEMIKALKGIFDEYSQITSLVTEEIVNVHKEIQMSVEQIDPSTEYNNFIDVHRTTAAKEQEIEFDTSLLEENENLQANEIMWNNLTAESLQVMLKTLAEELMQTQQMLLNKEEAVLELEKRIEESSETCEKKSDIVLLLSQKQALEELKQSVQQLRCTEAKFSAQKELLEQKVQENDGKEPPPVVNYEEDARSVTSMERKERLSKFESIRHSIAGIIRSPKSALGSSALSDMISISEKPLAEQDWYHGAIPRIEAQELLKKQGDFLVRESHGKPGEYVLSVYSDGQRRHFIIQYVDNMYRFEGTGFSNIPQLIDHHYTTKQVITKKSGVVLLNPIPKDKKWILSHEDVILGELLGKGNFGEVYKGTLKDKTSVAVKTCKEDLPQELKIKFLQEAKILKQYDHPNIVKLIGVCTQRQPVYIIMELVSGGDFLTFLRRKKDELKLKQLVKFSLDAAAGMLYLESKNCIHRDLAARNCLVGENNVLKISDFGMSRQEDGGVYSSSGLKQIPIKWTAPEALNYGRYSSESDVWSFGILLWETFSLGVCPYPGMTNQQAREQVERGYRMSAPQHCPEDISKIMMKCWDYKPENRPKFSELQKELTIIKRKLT
Sequence of Ephrin type-A receptor 1 (Homo sapiens) (P21709 whole entry): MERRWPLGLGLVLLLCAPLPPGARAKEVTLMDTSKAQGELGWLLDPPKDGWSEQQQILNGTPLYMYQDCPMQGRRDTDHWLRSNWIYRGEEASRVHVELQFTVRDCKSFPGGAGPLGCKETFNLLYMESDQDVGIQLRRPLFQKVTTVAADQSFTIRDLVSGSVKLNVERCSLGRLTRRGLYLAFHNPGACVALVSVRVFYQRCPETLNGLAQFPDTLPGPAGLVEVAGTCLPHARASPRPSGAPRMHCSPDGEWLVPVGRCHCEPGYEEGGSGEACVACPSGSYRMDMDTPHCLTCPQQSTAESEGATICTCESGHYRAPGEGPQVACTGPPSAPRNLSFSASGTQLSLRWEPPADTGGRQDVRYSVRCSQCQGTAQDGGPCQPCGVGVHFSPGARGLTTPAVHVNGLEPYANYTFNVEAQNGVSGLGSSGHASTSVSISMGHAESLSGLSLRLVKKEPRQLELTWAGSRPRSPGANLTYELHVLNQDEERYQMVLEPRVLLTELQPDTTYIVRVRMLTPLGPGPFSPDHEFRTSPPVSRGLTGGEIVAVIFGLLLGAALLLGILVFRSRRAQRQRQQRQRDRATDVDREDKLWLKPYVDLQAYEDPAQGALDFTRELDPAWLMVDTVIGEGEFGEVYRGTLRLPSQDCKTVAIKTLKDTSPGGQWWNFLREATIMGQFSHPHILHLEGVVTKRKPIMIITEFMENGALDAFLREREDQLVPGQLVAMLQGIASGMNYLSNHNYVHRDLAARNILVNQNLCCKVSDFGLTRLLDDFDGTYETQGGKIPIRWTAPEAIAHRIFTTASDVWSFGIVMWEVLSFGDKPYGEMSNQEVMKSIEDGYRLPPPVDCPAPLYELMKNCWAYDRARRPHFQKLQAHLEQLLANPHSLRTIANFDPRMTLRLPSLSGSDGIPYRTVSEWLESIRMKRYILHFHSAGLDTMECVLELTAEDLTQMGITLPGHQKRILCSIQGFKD
Sequence of STE20-like serine/threonine-protein kinase (Homo sapiens) (Q9H2G2 whole entry, looked up): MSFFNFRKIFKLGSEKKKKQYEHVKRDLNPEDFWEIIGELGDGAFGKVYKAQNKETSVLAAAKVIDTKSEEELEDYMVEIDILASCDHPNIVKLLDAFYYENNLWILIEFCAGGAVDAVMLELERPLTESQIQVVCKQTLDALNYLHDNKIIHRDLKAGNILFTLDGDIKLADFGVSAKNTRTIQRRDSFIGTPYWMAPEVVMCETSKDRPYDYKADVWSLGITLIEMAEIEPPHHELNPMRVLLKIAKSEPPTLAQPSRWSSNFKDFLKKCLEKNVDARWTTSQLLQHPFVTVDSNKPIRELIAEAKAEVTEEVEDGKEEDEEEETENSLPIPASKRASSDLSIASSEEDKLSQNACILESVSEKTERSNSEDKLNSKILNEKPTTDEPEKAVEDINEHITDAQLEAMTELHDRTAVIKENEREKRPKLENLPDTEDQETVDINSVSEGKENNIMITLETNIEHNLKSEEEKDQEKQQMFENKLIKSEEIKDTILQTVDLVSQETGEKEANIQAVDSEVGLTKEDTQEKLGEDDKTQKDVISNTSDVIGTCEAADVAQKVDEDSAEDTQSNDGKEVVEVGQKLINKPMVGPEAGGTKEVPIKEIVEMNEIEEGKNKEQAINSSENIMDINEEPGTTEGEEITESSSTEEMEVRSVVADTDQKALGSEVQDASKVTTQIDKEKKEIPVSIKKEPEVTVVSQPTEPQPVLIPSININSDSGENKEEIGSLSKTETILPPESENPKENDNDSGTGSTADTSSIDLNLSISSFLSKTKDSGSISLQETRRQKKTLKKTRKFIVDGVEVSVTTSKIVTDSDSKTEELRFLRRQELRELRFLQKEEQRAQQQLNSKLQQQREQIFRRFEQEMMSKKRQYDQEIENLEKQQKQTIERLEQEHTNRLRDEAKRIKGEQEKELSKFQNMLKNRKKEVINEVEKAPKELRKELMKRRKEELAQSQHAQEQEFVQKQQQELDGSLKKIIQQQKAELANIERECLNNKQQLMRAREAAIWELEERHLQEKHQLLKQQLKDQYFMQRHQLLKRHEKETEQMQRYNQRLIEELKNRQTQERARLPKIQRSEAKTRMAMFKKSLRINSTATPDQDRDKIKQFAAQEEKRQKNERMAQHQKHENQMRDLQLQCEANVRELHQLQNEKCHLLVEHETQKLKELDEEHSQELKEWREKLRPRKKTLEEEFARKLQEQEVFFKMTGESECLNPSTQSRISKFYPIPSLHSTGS

For orientation: inhibition means the relative decrease from the control value, in per cent. A word on the residual activity: it is the share of the control activity or signal that is left under treatment. Read a low residual activity as little activity left. In the case of `CCN1CCN(Cc2ccc(NC(=O)c3ccc(C)c(/C=C/c4cnc5[nH]ccc5c4OC)c3)cc2C(F)(F)F)CC1`, the results for the inhibition in [1] and in assay [2] were 12.2% and -8%, respectively. Further, the residual activity in assay [3] is 16%.
In the case of `CCN1CCN(Cc2ccc(NC(=O)c3ccc(C)c(Oc4ccnc5[nH]ccc45)c3)cc2C(F)(F)F)CC1`, the inhibition was determined as 83.3% in assay [4], 18% in assay [5] and 18.6% in assay [6].
Regarding `CNc1cc(Oc2cc(C(=O)Nc3cc(N4CCN(C)CC4)cc(C(F)(F)F)c3)ccc2C)ncn1`, the inhibition in assay [7] came to 1.9%; in [8], 6.9%; in assay [9] it was 0.6%.

The values above are taken from ChEMBL document CHEMBL5696442, “Discovery of type II inhibitors of TGFβ-activated kinase 1 (TAK1) and mitogen-activated protein kinase kinase kinase kinase 2 (MAP4K2)” (J Med Chem, 2015).
